Data published in patent US12448369B2 (Edgewise Therapeutics, Inc., priority 2023, dated 2025).

Tests used:
[1] = target: T1, Porcine ventricle myofibrils (ventricular myosin ATPase) (Sus scrofa, UniProt P79293); assay: Myofibril ATPase assay, porcine ventricle myofibrils; assay type: biochemical, porcine (Yucatan minipigs); settings: porcine ventricle myofibrils
T1 construct: Myofibrils from porcine cardiac muscle was isolated from the left ventricle of Yucatan minipigs; tissue Exemplar Genetics; host or cells: left ventricle of Yucatan minipigs, myofibrils prepared in house
Method in brief: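 Test compounds acted on myofibrils isolated from the left ventricle of Yucatan minipigs. ADP formation was coupled via pyruvate kinase/lactate dehydrogenase to NADH oxidation, monitored kinetically at 340 nm over 75 min. Rates relative to vehicle were fitted with a 4-parameter logistic model, reported as Y75 (25% inhibition) or Y125 (activation) concentrations.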

[2] = test system: Rabbit Psoas myofibrils (skeletal myosin ATPase); assay: Myofibril ATPase assay, rabbit psoas (skeletal) myofibrils; assay type: biochemical; settings: rabbit psoas myofibrils
Method in brief: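 Readout: A340 decline from NADH oxidation, PK/LDH-coupled to ADP release; kinetic reads over 75 min. Buffer: pCa (PIPES, CaCl2, EGTA), pH 7.0. Linear-regression slopes vs vehicle, 4PL fit; reported as concentration giving 75% (Y75) or 125% (Y125) of vehicle activity.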

[3] = test system: Porcine atria myofibrils (atrial myosin ATPase); assay: Myofibril ATPase assay, porcine atria myofibrils; assay type: biochemical; settings: porcine atria myofibrils
Method in brief: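 Coupled PK-LDH readout, NADH loss at 340 nm, kinetic 75 min. Porcine atria myofibrils, pCa buffer (PIPES/CaCl2/EGTA, pH 7.0). Slopes (mAU/min) normalized to vehicle = 100%, 4-parameter fit; Y75 or Y125 reported.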

[4] = Y75 value (75% activity relative to no compound)

T1 sequence (P79293 whole entry): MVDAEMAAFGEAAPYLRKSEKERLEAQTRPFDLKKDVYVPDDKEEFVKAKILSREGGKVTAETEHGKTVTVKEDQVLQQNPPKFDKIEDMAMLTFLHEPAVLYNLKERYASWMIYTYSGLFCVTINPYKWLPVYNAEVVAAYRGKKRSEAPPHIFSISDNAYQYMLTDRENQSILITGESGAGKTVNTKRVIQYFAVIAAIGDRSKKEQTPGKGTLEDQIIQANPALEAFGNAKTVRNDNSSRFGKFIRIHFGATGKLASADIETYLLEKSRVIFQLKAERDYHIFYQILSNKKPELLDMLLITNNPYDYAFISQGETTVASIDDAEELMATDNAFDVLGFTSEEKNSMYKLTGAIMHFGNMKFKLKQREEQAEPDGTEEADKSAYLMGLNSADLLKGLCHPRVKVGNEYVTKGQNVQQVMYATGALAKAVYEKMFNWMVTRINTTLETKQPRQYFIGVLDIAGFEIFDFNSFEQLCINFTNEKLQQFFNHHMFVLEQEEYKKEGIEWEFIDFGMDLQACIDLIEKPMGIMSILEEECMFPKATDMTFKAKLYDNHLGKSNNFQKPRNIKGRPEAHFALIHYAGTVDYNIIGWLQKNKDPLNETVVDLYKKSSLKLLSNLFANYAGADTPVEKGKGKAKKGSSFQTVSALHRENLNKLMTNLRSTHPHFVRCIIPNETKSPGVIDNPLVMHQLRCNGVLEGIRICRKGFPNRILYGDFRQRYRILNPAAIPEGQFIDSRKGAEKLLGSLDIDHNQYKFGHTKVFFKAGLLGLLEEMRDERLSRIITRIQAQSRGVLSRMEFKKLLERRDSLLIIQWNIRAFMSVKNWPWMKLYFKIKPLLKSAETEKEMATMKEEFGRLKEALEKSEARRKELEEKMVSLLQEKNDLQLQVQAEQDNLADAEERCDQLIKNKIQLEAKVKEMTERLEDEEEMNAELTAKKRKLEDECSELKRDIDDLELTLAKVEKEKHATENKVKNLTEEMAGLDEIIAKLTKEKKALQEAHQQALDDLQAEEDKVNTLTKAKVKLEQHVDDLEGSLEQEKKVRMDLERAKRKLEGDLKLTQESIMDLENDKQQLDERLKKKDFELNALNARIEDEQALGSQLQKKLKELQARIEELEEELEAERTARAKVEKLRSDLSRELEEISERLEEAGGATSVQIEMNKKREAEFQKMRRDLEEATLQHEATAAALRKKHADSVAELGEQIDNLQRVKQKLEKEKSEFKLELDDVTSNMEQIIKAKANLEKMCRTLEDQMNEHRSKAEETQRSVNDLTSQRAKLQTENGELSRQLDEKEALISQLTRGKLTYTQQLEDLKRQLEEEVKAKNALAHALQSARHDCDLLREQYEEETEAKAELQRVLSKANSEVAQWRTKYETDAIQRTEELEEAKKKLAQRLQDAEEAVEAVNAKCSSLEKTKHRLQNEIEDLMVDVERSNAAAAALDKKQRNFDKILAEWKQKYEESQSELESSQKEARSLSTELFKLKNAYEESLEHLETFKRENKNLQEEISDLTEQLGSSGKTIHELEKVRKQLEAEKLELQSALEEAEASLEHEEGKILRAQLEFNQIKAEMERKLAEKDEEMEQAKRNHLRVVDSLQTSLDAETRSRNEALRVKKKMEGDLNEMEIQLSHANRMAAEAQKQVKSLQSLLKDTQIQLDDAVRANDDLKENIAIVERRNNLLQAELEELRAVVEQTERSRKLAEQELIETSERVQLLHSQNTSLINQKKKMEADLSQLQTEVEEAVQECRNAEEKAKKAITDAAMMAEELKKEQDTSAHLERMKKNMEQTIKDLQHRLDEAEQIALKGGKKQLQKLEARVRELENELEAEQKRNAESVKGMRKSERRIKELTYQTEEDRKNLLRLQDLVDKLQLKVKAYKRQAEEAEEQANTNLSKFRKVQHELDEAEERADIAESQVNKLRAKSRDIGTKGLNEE

SMILES | Ventricular EC25 ([1]; Y75 value) [µM] | Skeletal EC25 ([2]; Y75 value) [µM] | Atrial EC25 [3, 4] [µM] | Ventricular EC25 ([1]; Y75 value (no ‡ mark)) [µM] | Skeletal EC25 ([2]; Y75 value (no ‡ mark)) [µM] | Atrial EC25 ([3]; Y75 value (no ‡ mark)) [µM]
Cc1c(CC(=O)N[C@H](CO)c2ncc(C#N)cc2F)c(=O)[nH]c2ccnc(C#N)c12 (single isomer, unassigned) [compound 245] | 9.46 | 0.93 | 8.37 |  |  | 
Cc1nccc2[nH]c(=O)c(CC(=O)N[C@H](C)c3ncccc3F)c(C)c12 (single isomer, unassigned) [compound 267] | 100.00 | 100.00 | 100.00 |  |  | 
Cc1c(CC(=O)N[C@@H](C)c2ccc(F)cc2F)c(=O)[nH]c2cnnc(O)c12 [compound 240] | 100.00 | 100.00 | 100.00 |  |  | 
Cc1nc(C#N)ncc1[C@@H](C)NC(=O)Cc1c(C)c2c(C)nccc2[nH]c1=O [compound 464] | 0.18 | 0.03 | 0.37 |  |  | 
Cc1nccc2[nH]c(=O)c(CC(=O)N[C@H](CO)Cc3ccccc3)c(C)c12 [compound 495] | 100.00 | 100.00 | 100.00 |  |  | 
C[C@@H](NC(=O)Cc1cc2c(F)c(F)ccc2[nH]c1=O)c1cnc(C#N)cn1 (single isomer, unassigned) [compound 11] |  |  |  | 0.15 | 0.07 | 0.05
Cc1c(CC(=O)N[C@H](C)c2ccc(C#N)cn2)c(=O)[nH]c2ccc(F)cc12 [compound 1127] |  |  |  | 1.57 | 0.24 | 0.72
COc1ccc2[nH]c(=O)c(C(C)C(=O)N[C@@H](C)c3ccc(F)cc3F)cc2c1Cl (stereo partly drawn) [compound 87] |  |  |  | 100.00 | 100.00 | 100.00
Cc1c(CC(=O)N[C@@H](C)c2ccc(F)cc2F)c(=O)[nH]c2ccc(F)c(C(F)(F)F)c12 [compound 96] |  |  |  | 0.13 | 0.01 | 0.07
Cc1c(C2(C(=O)N[C@H](C)c3nccc(C#N)n3)CC2)c(=O)[nH]c2ccc(F)cc12 (single isomer, unassigned) [compound 4841] |  |  |  | 100.00 | 100.00 | 97.50
Cc1nc(C#N)cnc1[C@@H](C)NC(=O)C(F)(F)c1c(C)c2c(C)nccc2[nH]c1=O (single isomer, unassigned) [compound 3503] | 5.70 | 0.89 | 3.50 |  |  | 
Cc1c(CC(=O)N[C@@H](CO)c2ncc(C#N)cc2F)c(=O)[nH]c2cnnc(C#N)c12 [compound 164] | 22.06 | 1.12 | 2.51 |  |  | 
Cc1c(C(F)(F)C(=O)N[C@H]2CCc3cc(C#N)cnc32)c(=O)[nH]c2ccc(F)cc12 (single isomer, unassigned) [compound 2516] |  |  |  | 100.00 | 0.67 | 0.79
Cc1nccc2[nH]c(=O)c([C@@H](C)C(=O)N[C@H](C)c3ncc(C#N)cc3F)c(C)c12 (single isomer, unassigned) [compound 191] | 100.00 | 4.04 | 1.73 |  |  | 
Cc1c(CC(=O)N[C@@H](C)c2ccc(F)cc2F)c(=O)[nH]c2ccnc(I)c12 [compound 353] | 0.31 | 0.06 | 0.14 |  |  | 
COc1ccc2[nH]c(=O)c(CC(=O)N[C@@H](C)c3ccc(F)cc3F)cc2c1 [compound 124] |  |  |  | 100.00 | 42.44 | 100.00
Cc1c(O)ccc2[nH]c(=O)c(CC(=O)N[C@@H](C)c3ncc(F)cc3F)cc12 (single isomer, unassigned) [compound 78] |  |  |  | 100.00 | 6.60 | 7.08
Cc1nccc2[nH]c(=O)c(CC(=O)N[C@H](C)c3ccc(C#N)cn3)c(C)c12 (single isomer, unassigned) [compound 253] | 100.00 | 100.00 | 100.00 |  |  | 
CC(C(=O)N[C@@H](C)c1ccc(F)cc1F)c1cc2c(I)nccc2[nH]c1=O (stereo partly drawn) [compound 362] | 100.00 | 0.40 | 9.38 |  |  | 

SMILES | Ventricular EC25 ([1]; Y75 value) [µM] | Skeletal EC25 ([2]; Y75 value) [µM] | Atrial EC25 [3, 4] [µM] | Ventricular EC25 ([1]; Y75 value (no ‡ mark)) [µM] | Skeletal EC25 ([2]; Y75 value (no ‡ mark)) [µM] | Atrial EC25 ([3]; Y75 value (no ‡ mark)) [µM]
Cc1c(CC(=O)N[C@@H](C)c2ccc(C#N)cn2)c(=O)[nH]c2ccnc(C#N)c12 [compound 158] | 1.80 | 0.06 | 0.43 |  |  | 
CCN(CC)c1nccc2[nH]c(=O)c(CC(=O)N[C@@H](C)c3ccc(F)cc3F)c(C)c12 [compound 343] | 9.62 | 1.55 | 2.39 |  |  | 
CCOc1nccc2[nH]c(=O)c([C@@H](C)C(=O)N[C@@H](C)c3ccc(F)cc3F)c(C(F)(F)F)c12 (single isomer, unassigned) [compound 416] | 100.00 | 0.46 | 100.00 |  |  | 
Cc1nccc2[nH]c(=O)c(CC(=O)N[C@H](CO)c3ncc(F)cc3F)c(C)c12 (single isomer, unassigned) [compound 303] | 100.00 | 40.83 | 100.00 |  |  | 
Cc1c(CC(=O)N[C@H](CO)c2ccc(F)cc2F)c(=O)[nH]c2ccc(C(F)(F)F)nc12 [compound 216] | 100.00 | 100.00 | 100.00 |  |  | 
Cc1c(CC(=O)N[C@@H]2CCc3cc(C#N)cnc32)c(=O)[nH]c2ccc(F)cc12 [compound 1092] |  |  |  | 2.41 | 0.36 | 1.13
C[C@H](NC(=O)[C@@H](C)c1c(C(F)(F)F)c2cnccc2[nH]c1=O)c1ccc(F)cc1F (single isomer, unassigned) [compound 426] | 66.84 | 12.74 | 4.84 |  |  | 
Cc1nccc2[nH]c(=O)c(CC(=O)N[C@@H](CO)c3ccccn3)c(C)c12 (single isomer, unassigned) [compound 317] | 100.00 | 100.00 | 100.00 |  |  | 
Cc1nccc2[nH]c(=O)c(CC(=O)N[C@@H](C)c3ncc(C#N)cn3)c(C)c12 [compound 483] | 16.67 | 7.32 | 4.03 |  |  | 
C[C@@H](NC(=O)Cc1cc2cc(F)c(F)cc2[nH]c1=O)c1ccc(C#N)cn1 [compound 1114] |  |  |  | 8.08 | 22.82 | 8.40
C[C@H](NC(=O)Cc1cc2c(Cl)nccc2[nH]c1=O)c1ccc(F)cc1F [compound 439] | 0.47 | 0.10 | 0.06 |  |  | 
N#Cc1cnc2c(c1)CC[C@H]2NC(=O)C1(c2cc3c(F)c(F)ccc3[nH]c2=O)CC1 (single isomer, unassigned) [compound 4823] |  |  |  | 100.00 | 42.66 | 8.47
C[C@@H](NC(=O)Cc1cc2cc(F)ccc2[nH]c1=O)c1ncc(C#N)cn1 (single isomer, unassigned) [compound 2029] |  |  |  | 18.01 | 3.21 | 1.26
Cc1nccc2[nH]c(=O)c(CC(=O)N[C@@H]3CCc4cc(C#N)cc(F)c43)c(C)c12 (single isomer, unassigned) [compound 197] | 49.43 | 4.23 | 2.80 |  |  | 
Cc1c(C(F)(F)C(=O)N[C@H](C)c2ncc(F)cc2F)c(=O)[nH]c2ccc(F)cc12 (single isomer, unassigned) [compound 4819] |  |  |  | 2.65 | 1.02 | 0.28
CCc1c(CC(=O)N[C@@H](C)c2ccc(F)cc2F)c(=O)[nH]c2ccccc12 [compound 126] |  |  |  | 0.49 | 0.03 | 0.06
Cc1c(CC(=O)N[C@@H](C)c2ncc(C#N)cc2F)c(=O)[nH]c2ccnc(C(F)(F)F)c12 (single isomer, unassigned) [compound 227] | 0.62 | 0.07 | 0.09 |  |  | 
Cc1c(CC(=O)N[C@H]2COc3cc(F)cc(F)c32)c(=O)[nH]c2ccnc(C#N)c12 (single isomer, unassigned) [compound 274] | 0.13 | 0.02 | 0.04 |  |  | 
N#Cc1cc(F)c2c(c1)OC[C@H]2NC(=O)C1(c2cc3c(F)c(F)ccc3[nH]c2=O)CC1 (single isomer, unassigned) [compound 4821] |  |  |  | 100.00 | 20.88 | 0.44
